This is an account of results in publication PMC4979471 (Cell Death Discovery, 2015).

What all share (assay): Kinase selectivity, P33-radiolabeled assay
Holding throughout (assay type): biochemical
Holding throughout (conditions): 10 μM ATP

One experiment concerns the target T1, MST3/STK24 (Homo sapiens, UniProt Q9Y6E0).
T1 construct: purchased Reaction Biology Corp
The essentials: (§1)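 Each enzyme was exposed to 10 μM compound, with duplicate measurements, in reactions containing 10 μM ATP. Numbers are remaining activity as a percent of the vehicle (DMSO) signal.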

Another experiment deals with T2, MNK2 (Homo sapiens, UniProt Q9HBH9).
T2 construct: purchased Reaction Biology Corp
T2 sequence (Q9HBH9 whole entry): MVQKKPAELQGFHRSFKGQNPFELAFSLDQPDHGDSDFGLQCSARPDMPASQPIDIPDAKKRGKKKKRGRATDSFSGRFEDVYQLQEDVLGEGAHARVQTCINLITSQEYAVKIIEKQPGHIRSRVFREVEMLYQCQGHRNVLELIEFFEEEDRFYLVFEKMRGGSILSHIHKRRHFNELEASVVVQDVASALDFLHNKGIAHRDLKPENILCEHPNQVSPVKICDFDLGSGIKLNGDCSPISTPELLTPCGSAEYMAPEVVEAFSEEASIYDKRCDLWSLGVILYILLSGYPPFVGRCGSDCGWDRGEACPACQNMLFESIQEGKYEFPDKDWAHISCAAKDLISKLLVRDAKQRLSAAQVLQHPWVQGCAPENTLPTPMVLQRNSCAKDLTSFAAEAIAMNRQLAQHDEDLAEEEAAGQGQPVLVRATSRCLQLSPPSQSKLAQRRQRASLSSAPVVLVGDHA
The essentials:
as §1

A further experiment has as its target T3, MARK4 (Homo sapiens, UniProt Q96L34).
T3 construct: purchased Reaction Biology Corp
T3 sequence (Q96L34 1-752): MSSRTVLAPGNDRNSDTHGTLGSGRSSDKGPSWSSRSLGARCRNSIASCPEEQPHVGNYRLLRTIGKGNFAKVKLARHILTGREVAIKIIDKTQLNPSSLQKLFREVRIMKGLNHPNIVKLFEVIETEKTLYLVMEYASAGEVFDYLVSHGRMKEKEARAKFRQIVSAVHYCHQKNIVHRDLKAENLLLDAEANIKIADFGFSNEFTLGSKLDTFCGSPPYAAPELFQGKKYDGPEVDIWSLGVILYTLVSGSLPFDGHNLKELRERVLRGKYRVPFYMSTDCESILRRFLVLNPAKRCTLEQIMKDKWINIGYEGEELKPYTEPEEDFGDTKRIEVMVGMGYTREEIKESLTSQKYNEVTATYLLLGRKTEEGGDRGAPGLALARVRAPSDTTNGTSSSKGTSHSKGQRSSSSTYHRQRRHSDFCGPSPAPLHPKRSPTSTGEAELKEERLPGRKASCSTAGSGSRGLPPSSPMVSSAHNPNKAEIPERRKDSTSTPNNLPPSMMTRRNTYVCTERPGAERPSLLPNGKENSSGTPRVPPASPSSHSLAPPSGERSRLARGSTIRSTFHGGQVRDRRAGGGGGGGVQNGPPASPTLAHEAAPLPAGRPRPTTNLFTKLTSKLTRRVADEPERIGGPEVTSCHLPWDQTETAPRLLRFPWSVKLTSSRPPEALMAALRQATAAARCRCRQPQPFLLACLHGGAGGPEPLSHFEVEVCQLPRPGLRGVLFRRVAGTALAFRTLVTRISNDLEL
In a few lines:
as §1

The next experiment deals with T4, MEKK3 (Homo sapiens, UniProt Q99759).
T4 construct: purchased Reaction Biology Corp
T4 sequence (Q99759 1-626): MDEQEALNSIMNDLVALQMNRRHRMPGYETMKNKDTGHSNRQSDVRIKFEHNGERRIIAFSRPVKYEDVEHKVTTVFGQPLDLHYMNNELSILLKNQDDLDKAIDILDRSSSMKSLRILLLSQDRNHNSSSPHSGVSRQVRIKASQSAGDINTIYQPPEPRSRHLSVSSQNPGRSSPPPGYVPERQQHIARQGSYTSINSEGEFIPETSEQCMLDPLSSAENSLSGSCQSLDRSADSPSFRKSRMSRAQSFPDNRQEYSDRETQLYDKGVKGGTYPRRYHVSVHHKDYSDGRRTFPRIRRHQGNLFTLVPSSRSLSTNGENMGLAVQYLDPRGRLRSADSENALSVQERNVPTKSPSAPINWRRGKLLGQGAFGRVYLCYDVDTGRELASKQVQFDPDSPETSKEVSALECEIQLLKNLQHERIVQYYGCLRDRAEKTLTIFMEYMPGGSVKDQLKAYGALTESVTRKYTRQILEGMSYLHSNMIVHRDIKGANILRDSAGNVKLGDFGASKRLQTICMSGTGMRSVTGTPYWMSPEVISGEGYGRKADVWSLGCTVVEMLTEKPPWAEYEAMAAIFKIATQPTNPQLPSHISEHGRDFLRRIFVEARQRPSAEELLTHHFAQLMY
The essentials: as §1

The target in another experiment is T5, FYN (Homo sapiens, UniProt P06241).
T5 construct: purchased Reaction Biology Corp
T5 sequence (P06241 whole entry): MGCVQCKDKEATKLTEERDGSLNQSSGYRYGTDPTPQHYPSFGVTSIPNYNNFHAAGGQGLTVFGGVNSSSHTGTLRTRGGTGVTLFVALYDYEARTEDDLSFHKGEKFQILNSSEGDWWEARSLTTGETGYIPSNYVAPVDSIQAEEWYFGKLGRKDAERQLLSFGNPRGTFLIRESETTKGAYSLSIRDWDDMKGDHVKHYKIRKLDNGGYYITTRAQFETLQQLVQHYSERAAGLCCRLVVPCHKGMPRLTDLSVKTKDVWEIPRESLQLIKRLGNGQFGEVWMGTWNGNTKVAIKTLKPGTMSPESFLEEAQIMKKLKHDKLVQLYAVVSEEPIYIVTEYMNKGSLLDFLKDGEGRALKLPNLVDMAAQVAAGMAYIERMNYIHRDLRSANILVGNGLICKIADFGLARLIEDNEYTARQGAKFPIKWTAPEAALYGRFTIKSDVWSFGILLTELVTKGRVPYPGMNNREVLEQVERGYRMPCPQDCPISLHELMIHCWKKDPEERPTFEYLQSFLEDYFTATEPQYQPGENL
In a few lines:
as §1

A further experiment has as its target T6, RIPK5 (Homo sapiens, UniProt Q6XUX3).
T6 construct: purchased Reaction Biology Corp
T6 sequence (Q6XUX3 1-929): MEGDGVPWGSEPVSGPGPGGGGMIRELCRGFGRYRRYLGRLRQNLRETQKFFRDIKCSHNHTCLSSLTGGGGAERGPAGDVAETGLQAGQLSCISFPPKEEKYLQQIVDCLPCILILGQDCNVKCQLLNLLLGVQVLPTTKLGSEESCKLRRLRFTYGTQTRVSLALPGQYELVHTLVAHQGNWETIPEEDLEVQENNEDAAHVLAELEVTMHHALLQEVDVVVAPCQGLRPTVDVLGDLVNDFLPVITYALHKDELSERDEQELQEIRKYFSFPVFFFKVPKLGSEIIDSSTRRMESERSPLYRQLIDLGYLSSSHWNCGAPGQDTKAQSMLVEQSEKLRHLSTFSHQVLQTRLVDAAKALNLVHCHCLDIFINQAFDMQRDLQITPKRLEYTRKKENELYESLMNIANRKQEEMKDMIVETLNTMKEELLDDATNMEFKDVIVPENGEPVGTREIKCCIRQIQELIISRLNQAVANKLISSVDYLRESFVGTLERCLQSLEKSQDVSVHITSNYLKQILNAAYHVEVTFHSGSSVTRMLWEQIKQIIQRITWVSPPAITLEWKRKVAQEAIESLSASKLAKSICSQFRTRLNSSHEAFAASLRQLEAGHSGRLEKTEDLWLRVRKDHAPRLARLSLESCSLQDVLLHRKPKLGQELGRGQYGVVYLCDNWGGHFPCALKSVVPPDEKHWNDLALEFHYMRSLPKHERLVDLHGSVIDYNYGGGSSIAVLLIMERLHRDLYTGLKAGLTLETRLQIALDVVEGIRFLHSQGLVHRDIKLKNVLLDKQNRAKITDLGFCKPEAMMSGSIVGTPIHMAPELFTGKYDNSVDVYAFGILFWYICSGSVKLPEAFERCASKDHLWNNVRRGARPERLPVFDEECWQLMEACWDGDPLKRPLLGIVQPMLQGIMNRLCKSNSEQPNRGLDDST
In a few lines: as §1

[1] abbreviates: read-out: % Enzyme Activity (relative to DMSO controls) AVG.
[2] abbreviates: read-out: % Enzyme Activity (relative to DMSO controls) Data 1.
Setting [3] is: read-out: % Enzyme Activity (relative to DMSO controls) Data 2.

Where two headings read alike, the source gives them in different places.

T1 sequence (Q9Y6E0 whole entry): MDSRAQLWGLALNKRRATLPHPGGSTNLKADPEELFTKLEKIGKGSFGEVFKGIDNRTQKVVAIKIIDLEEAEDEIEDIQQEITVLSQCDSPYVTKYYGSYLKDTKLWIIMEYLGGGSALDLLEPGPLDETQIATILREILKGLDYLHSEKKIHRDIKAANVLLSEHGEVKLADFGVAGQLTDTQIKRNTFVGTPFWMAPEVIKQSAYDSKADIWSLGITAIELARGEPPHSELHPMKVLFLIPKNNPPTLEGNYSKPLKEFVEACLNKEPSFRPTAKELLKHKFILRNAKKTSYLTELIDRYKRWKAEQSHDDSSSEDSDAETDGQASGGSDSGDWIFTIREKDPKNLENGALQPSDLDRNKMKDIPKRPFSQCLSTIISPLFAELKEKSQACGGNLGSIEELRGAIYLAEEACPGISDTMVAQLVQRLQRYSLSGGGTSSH

Take `CC(C)(C)C(=O)N1N=CC[C@H]1c1ccccc1` [GSK′963]: the remaining activity at 10 µM at MST3/STK24 (setting [1]) was 87.4%; at MST3/STK24 (setting [2]), 87.3%; at MST3/STK24 (setting [3]), 87.5%; on MNK2 (setting [1]), 109%; on MNK2 (setting [2]), 107%; at MNK2 (setting [3]), 111%. Further, the remaining activity at 10 µM at MARK4 (setting [1]) came out at 107%; on MARK4 (setting [2]), 105%; at MARK4 (setting [3]), 109%; on MEKK3 (setting [1]), 119%; at MEKK3 (setting [2]), 122%; on MEKK3 (setting [3]) it was 115%. Also, the remaining activity at 10 µM at FYN (setting [1]) stood at 106%; at FYN (setting [2]), 104%; on FYN (setting [3]), 107%; at RIPK5 (setting [1]), 101%; at RIPK5 (setting [2]), 102%; on RIPK5 (setting [3]) it was 99.6%.
